Read-outs that look alike come from different tables or passages of the source.
Tests used:
SARS-CoV-2 delta = test: microbe, parasite or virus in culture; type: cell-based; conditions: VERO E6, plus 0.5 µM P-gp inhibitor CP-100356, MOI 0.005, 72 h, read-out: IC50 Delta Mean ± SD
SARS-CoV-2 omicron BA.1 = test: microbe, parasite or virus in culture; type: cell-based; conditions: read-out: IC50 BA.1 Mean ± SD
SARS-CoV-2 omicron BA.2 = test: microbe, parasite or virus in culture; type: cell-based; conditions: read-out: IC50 BA.2 Mean ± SD
in vitro = conditions: African green monkey
[1] = Severe acute respiratory syndrome coronavirus 2, Vero C1008
[2] = Severe acute respiratory syndrome coronavirus 2, Vero C1008, VERO E6, plus 0.5 µM P-gp inhibitor CP-100356, MOI 0.005, 72 h

Compound: CCC(CC)COC(=O)[C@H](C)N[P@](=O)(OC[C@H]1O[C@@](C#N)(c2ccc3c(N)ncnn23)[C@H](O)[C@@H]1O)Oc1ccccc1 [Remdesivir]
- IC50 (SARS-CoV-2 delta; [1]): 110 ± 80 nM
- IC50 (SARS-CoV-2 omicron BA.1; [2]): 50 ± 40 nM
- IC50 (SARS-CoV-2 omicron BA.2; [2]): 80 ± 10 nM

Compound: CP-100356 hydrochloride
- Decrease of cell viability (VERO E6 cells): 20%

Compound: O=c1nc(NO)ccn1[C@@H]1O[C@H](CO)[C@@H](O)[C@H]1O [EIDD-1931]
- IC50 (SARS-CoV-2 delta): 1500 ± 700 nM
- IC50 (SARS-CoV-2 omicron BA.1): 1000 ± 500 nM
- IC50 (SARS-CoV-2 omicron BA.2): 800 ± 10 nM
- CC50 (VERO E6 cells): 43300 ± 6000 nM

Compound: CC(C)(C)[C@H](NC(=O)C(F)(F)F)C(=O)N1C[C@H]2[C@@H]([C@H]1C(=O)N[C@H](C#N)C[C@@H]1CCNC1=O)C2(C)C [Nirmatrelvir]
- IC50 (SARS-CoV-2 delta; [1]): 60 ± 10 nM
- IC50 (SARS-CoV-2 omicron BA.1; [2]): 40 ± 20 nM
- IC50 (SARS-CoV-2 omicron BA.2; [2]): 40 ± 10 nM
- CC50 (VERO E6 cells; African green monkey): 40700 ± 4400 nM
- CC50 (in vitro): 69600 ± 1000 nM

— paper PMC9321742 (Viruses, 2022)
